Measurements taken from the NIST ThermoML archive (doi:10.1021/je700260f).

Conditions: 303.15 K, Liquid, Vibrating tube method

FC(C(F)(F)F)C(F)(F)F [1,1,1,2,3,3,3-heptafluoropropane]
Conditions | mass density [kg/m3]
15975 kPa | 1462
16006 kPa | 1462.4
16038 kPa | 1462.4
16079 kPa | 1462.6
16111 kPa | 1462.8
16152 kPa | 1462.9
16184 kPa | 1463
16220 kPa | 1463.2
16252 kPa | 1463.4
16288 kPa | 1463.6
16325 kPa | 1463.8
16349 kPa | 1463.9
16386 kPa | 1464
16414 kPa | 1464.1
16443 kPa | 1464.3
16485 kPa | 1464.4
16513 kPa | 1464.6
16550 kPa | 1464.7
16577 kPa | 1464.8
16623 kPa | 1465.1
16650 kPa | 1465.1
16678 kPa | 1465.2
16706 kPa | 1465.4
16742 kPa | 1465.5
16775 kPa | 1465.7
16802 kPa | 1465.8
16832 kPa | 1466
16862 kPa | 1466
16887 kPa | 1466.2
16920 kPa | 1466.4
16953 kPa | 1466.4
16978 kPa | 1466.6
17021 kPa | 1466.7
17046 kPa | 1466.9
17084 kPa | 1467
17113 kPa | 1467.2
17142 kPa | 1467.4
17167 kPa | 1467.5
17196 kPa | 1467.5
17235 kPa | 1467.8
17260 kPa | 1467.9
17289 kPa | 1468
17322 kPa | 1468.1
17360 kPa | 1468.3
17393 kPa | 1468.3
17423 kPa | 1468.6
17451 kPa | 1468.7
17484 kPa | 1468.8
17509 kPa | 1468.9
17544 kPa | 1469.1
17577 kPa | 1469.3
17603 kPa | 1469.3
17633 kPa | 1469.4
17662 kPa | 1469.6
17718 kPa | 1469.9
17752 kPa | 1470
17778 kPa | 1470
17808 kPa | 1470.1
17837 kPa | 1470.3
17867 kPa | 1470.6
17892 kPa | 1470.5
17928 kPa | 1470.7
17958 kPa | 1471
17996 kPa | 1471
18026 kPa | 1471.1
18056 kPa | 1471.2
18091 kPa | 1471.3
18125 kPa | 1471.6
18151 kPa | 1471.7
18185 kPa | 1471.7
18211 kPa | 1471.9
18238 kPa | 1472.2
18277 kPa | 1472.1
18303 kPa | 1472.4
18333 kPa | 1472.5
18359 kPa | 1472.6
18389 kPa | 1472.6
18419 kPa | 1472.9
18449 kPa | 1473
18480 kPa | 1472.9
18511 kPa | 1473.3
18545 kPa | 1473.3
18580 kPa | 1473.5
18615 kPa | 1473.7
18646 kPa | 1473.8
18677 kPa | 1473.8
18707 kPa | 1474.1
18737 kPa | 1474.2
18777 kPa | 1474.3
18803 kPa | 1474.4
18835 kPa | 1474.5
18861 kPa | 1474.7
18888 kPa | 1474.9
18913 kPa | 1475
18954 kPa | 1475.1
18980 kPa | 1475.2
19017 kPa | 1475.4
19044 kPa | 1475.5
19075 kPa | 1475.6
19101 kPa | 1475.6
19144 kPa | 1475.8
19166 kPa | 1476
19200 kPa | 1476.1
19235 kPa | 1476.3
19270 kPa | 1476.4
19296 kPa | 1476.6
19327 kPa | 1476.6
19353 kPa | 1476.7
19385 kPa | 1476.8
19420 kPa | 1477
19455 kPa | 1477.2
19490 kPa | 1477.3
19517 kPa | 1477.4
19553 kPa | 1477.5
19592 kPa | 1477.7
19624 kPa | 1477.9
19655 kPa | 1478.1
19691 kPa | 1478.1
19717 kPa | 1478.1
19758 kPa | 1478.3
19785 kPa | 1478.6
19828 kPa | 1478.6
19860 kPa | 1478.8
19891 kPa | 1478.9
19918 kPa | 1479
19949 kPa | 1479.2
19981 kPa | 1479.4
20016 kPa | 1479.4
20044 kPa | 1479.6
20076 kPa | 1479.9
20107 kPa | 1479.9
20152 kPa | 1480
20179 kPa | 1480.1
20216 kPa | 1480.2
20244 kPa | 1480.4
20285 kPa | 1480.6
20325 kPa | 1480.6
20357 kPa | 1480.8
20394 kPa | 1481
20436 kPa | 1481.2
20463 kPa | 1481.3
20491 kPa | 1481.3
20539 kPa | 1481.6
20570 kPa | 1481.7
20597 kPa | 1481.8
20637 kPa | 1481.9
20668 kPa | 1482
20701 kPa | 1482.2
20728 kPa | 1482.4
20769 kPa | 1482.6
20802 kPa | 1482.7
20880 kPa | 1482.9
21049 kPa | 1483.6
21082 kPa | 1483.8
21120 kPa | 1483.8
21152 kPa | 1484.1
21193 kPa | 1484.2
21217 kPa | 1484.4
21250 kPa | 1484.5
21278 kPa | 1484.6
21322 kPa | 1484.7
21360 kPa | 1484.9
21388 kPa | 1485
21421 kPa | 1485.1
21458 kPa | 1485.3
21490 kPa | 1485.4
21523 kPa | 1485.5
21556 kPa | 1485.5
21593 kPa | 1485.8
21626 kPa | 1486
22323 kPa | 1488.6
22447 kPa | 1489.1
22485 kPa | 1489.3
22514 kPa | 1489.4
22548 kPa | 1489.4
22580 kPa | 1489.5
22613 kPa | 1489.9
22643 kPa | 1489.7
22673 kPa | 1490
22707 kPa | 1490.1
22733 kPa | 1490.2
22771 kPa | 1490.3
22801 kPa | 1490.4
22828 kPa | 1490.5
22863 kPa | 1490.7
22899 kPa | 1490.8
22934 kPa | 1490.9
22959 kPa | 1491.1
22997 kPa | 1491.3
23032 kPa | 1491.4
23062 kPa | 1491.6
23102 kPa | 1491.5
23128 kPa | 1491.8
23159 kPa | 1491.7
23186 kPa | 1491.9
23217 kPa | 1492
23249 kPa | 1492.1
23281 kPa | 1492.3
23307 kPa | 1492.3
23342 kPa | 1492.6
23364 kPa | 1492.6
23395 kPa | 1492.8
23431 kPa | 1492.8
23462 kPa | 1492.9
23497 kPa | 1493
